The values that follow come from patent publication US20250099626A1, “COMPOSITIONS AND METHODS FOR OXONOL DYES WITH NEAR INFRARED FLUORESCENCE” (Washington University, priority 2023, published 2025).

Data set [1] in a line: Absorption and fluorescence emission spectra of the dyes in solvent. The class given is physicochemical. The settings on record: for Emission max, nm: excitation 700 nm. The procedure: Absorption spectra were recorded on a Beckman Coulter DU 640 UV-visible spectrophotometer (Brea, CA) and fluorescence spectra were recorded on a Fluorolog-3 spectrofluorometer (Horiba Jobin Yvon, Inc., Edison, NJ). All fluorescence measurements were conducted at room temperature and were recorded at excitation of 700 nm and emission scan from 715-900 nm.

Data set [2] is described as follows: Solubility in water. The class given is physicochemical.
Data set [3] relates to SKBR3-GFP-Luc cells. Put plainly: Cellular fluorescence intensity imaging (NIR channel) of dye uptake. The settings on record: 5 μM, 24 h incubation. The class given is cell-based, human. The procedure:
SKBR3-GFP-Luc cells (Dual labeled stable SK-BR-3 expressing green fluorescent protein (GFP) and luciferase, SL032, GeneCopoeia, Rockville, MD) were cultured in Dulbecco's Modified Eagle Medium (DMEM high glucose, Gibco) supplemented with 10% Fetal Bovine Serum (FBS), 1% penicillin/streptomycin and 5 μg/mL puromycin, and maintained in a humidified incubator at 37° C. with 5% CO2 atmosphere. For imaging experiments, these GFP labeled HER2+ human breast cancer cells were plated in Fluorobrite DMEM media (Gibco) supplemented with 10% FBS and 1% pen/strep in an 8-well chamber slide (6.0×10^4 cells in 200 μL media per well). […] All cells were washed with DPBS (300 μL×2) before mounting (Fluoromount-G, #1 coverslip) and imaging the slides with either a Zeiss AxioImager Z2 fluorescence microscope or FLIM.
Fluorescence intensity imaging was conducted on a Zeiss Axioimager.Z2 microscope equipped with a Hamamatsu ORCA Flash 4.0 V2 camera, X-Cite Xylis LED-based light source, and 20× Zeiss Plan-Apochromat air objective (0.8 N.A.) The imaging parameters included DAPI: excitation 335-383 nm/emission 420-470 nm/exposure time […] GFP: ex 450-490 nm/500-550 nm/46 ms exposure and NIR: ex 715-752 nm/760-855 nm/1 s exposure. […]

The nature of data set [4]: Relative fluorescence quantum yield using ICG as a standard. In kind it is physicochemical. The settings on record: DMSO. Here is the method:
The absorption spectra of 4 and 15 were measured in both methanol (FIG. 4(A-B)) and DMSO (FIG. 5(A-D)). […] The broad emission bands allow flexibility in the choice of excitation and fluorescence wavelengths in analytical and biological assays. The relative fluorescence quantum yields of dyes 4 and 15 measured in DMSO using ICG as a standard show the values of 0.24 and 0.093 respectively compared to 0.12 for ICG.

A short description of data set [5]: Fluorescence lifetime (FLT) by time-correlated single photon counting. In kind it is physicochemical. Here is the method: Fluorescence lifetimes (FLT) were measured using time-correlated single photon counting (TCSPC implemented in Fluorolog-3, Horiba Jobin Yvon) with a 700 nm excitation source NanoLed® (impulse repetition rate 1 MHz) at 90° to the PMT R928P detector (Hamamatsu Photonics, Japan). […] We chose DMSO as the solvent for this study because it provides a similar environment to the biological systems. The detector was set to 740 nm with a 20 nm bandpass and data were collected until the peak signal reached 10,000 counts.

The conditions of data set [6]: DMSO; reference value of ICG standard; cited from earlier work.

With `O=c1cc2/c(=C/C=C/C=C/c3c4c5c(cc(O)cc5oc3=O)OC(O)=C4)c(=O)oc3cc(O)cc(o1)c32` [Dye 4], the “Abs max, nm” value turned out to be 719 nm in data set [1] (DMSO) and 704 nm in data set [1] (Methanol). The “Emission max, nm” value in data set [1] (DMSO) is 744 nm; in data set [1] (Methanol), 731 nm. The Solubility in water entry in data set [2] is “low solubility in water”. Also, the “Cellular internalization / uptake judged by signal intensity in NIR channel” value in data set [3] is “essentially no appreciable uptake”. Besides, the “Quantum yield (relative fluorescence quantum yield)” value in data set [4] was found to be 0.24. Further, the “Fluorescent lifetime, ns” value is listed as 0.65 ns in data set [5] (DMSO, 700 nm excitation, detector 740 nm) and 0.28 ns in data set [5] (Methanol).
Take `CC1(C)C(/C=C/C=C/C=C/C=C2\N(CCCCS(=O)(=O)O)c3ccc4ccccc4c3C2(C)C)=[N+](CCCCS(=O)(=O)[O-])c2ccc3ccccc3c21` [ICG, indocyanine green]: the “Fluorescence quantum yield of the standard” value in data set [6] is 0.12.
